# Patent publication US20240398784A1, “C-LINKED ISOQUINOLINE AMIDES AS LRRK2 INHIBITORS, PHARMACEUTICAL COMPOSITIONS, AND USES THEREOF” (Merck Sharp & Dohme LLC, priority 2021, published 2024)
# Biological target: LRRK2 G2019S (Homo sapiens, UniProt Q5S007, G2019S)
# Test: LRRK2 G2019S Km ATP LanthaScreen assay
# Format: biochemical
# Details: not given
# Chain of LRRK2 G2019S (Q5S007 whole entry G2019S): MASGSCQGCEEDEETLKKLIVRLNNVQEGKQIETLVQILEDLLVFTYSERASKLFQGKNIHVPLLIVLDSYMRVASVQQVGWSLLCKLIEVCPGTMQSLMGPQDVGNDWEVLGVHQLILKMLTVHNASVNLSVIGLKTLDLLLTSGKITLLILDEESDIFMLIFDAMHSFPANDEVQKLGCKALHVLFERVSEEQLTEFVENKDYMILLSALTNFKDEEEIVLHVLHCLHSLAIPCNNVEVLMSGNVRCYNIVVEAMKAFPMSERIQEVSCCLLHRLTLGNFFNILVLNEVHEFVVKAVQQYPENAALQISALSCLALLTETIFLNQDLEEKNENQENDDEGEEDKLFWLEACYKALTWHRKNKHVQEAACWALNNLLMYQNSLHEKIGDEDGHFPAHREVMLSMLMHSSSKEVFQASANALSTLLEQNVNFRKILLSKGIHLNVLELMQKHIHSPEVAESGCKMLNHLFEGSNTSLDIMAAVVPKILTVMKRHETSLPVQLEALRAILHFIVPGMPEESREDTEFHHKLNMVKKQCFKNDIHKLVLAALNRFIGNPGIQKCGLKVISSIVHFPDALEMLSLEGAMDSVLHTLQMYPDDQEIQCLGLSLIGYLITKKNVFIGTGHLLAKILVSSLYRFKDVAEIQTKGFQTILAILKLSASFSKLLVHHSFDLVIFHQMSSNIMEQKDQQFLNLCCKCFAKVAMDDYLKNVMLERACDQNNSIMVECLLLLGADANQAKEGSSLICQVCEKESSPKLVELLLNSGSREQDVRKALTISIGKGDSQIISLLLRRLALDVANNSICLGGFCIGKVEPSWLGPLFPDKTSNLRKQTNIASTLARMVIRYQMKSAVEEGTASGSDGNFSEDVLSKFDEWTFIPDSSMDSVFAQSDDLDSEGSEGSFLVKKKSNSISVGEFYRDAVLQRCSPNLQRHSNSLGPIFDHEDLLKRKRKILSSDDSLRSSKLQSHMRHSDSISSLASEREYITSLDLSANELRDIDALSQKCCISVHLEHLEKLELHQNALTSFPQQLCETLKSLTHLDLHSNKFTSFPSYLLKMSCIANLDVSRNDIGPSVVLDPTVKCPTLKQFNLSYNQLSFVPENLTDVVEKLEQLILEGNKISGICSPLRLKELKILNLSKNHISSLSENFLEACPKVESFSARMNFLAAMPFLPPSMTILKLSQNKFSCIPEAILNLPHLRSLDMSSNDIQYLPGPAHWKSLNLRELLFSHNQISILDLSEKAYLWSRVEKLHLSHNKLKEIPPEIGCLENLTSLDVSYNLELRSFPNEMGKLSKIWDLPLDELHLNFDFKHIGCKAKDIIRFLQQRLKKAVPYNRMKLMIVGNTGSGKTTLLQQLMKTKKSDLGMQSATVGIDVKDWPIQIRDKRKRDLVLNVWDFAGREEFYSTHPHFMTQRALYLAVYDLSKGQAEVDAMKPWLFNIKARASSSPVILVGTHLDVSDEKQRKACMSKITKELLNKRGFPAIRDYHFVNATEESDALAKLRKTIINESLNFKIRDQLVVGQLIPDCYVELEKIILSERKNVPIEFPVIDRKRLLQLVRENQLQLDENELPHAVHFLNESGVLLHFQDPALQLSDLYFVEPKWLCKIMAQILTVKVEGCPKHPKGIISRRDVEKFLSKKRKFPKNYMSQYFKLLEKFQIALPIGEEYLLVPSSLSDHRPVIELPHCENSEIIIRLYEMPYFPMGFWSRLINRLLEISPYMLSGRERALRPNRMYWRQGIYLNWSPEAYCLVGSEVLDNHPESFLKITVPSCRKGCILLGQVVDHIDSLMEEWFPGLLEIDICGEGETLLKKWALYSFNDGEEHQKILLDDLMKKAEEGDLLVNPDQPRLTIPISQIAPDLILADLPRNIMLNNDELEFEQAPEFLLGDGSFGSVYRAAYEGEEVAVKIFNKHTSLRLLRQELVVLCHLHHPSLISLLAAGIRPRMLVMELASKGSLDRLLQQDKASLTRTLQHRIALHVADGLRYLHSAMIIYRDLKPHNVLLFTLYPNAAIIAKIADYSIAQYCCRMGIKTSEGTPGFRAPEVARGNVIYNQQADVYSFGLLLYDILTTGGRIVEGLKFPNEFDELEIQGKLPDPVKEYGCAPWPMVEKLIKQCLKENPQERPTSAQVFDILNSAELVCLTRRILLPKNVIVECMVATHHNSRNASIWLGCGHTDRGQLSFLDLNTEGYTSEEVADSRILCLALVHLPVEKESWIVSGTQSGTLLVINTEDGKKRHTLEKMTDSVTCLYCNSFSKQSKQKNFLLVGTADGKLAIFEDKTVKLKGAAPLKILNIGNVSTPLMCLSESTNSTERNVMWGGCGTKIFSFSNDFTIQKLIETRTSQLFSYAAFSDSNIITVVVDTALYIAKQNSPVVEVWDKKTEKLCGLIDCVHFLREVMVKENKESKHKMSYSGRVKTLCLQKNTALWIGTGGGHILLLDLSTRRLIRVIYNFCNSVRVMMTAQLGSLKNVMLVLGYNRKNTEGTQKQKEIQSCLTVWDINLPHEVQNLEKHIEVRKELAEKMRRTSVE
row,SMILES,LRRK2 pIC50
1,O=C(Nc1cc2cc(C3CCN(C4COC4)CC3)c(Cl)cc2cn1)C1CC12CC2 (stereo not shown) [Ex-9.1],8.69

# Same assay, conditions: read-out: LRRK2 pIC50 (converted)
row,IC50,SMILES
1,10.7 nM,"CCC(=O)N1CC(C(=O)Nc2cc3cc(C4(C#N)CC45CC5)ccc3cn2)C1 (single isomer, unassigned) [Ex-19.1, (R or S)-N-(6-(1-cyanospiro[2.2]pentan-1-yl)isoquinolin-3-yl)-1-propionylazetidine-3-carboxamide]"
2,7.41 nM,"N#CC1(c2cc3cc(NC(=O)C4CC4c4ccccn4)ncc3cc2F)CC12CC2 (single isomer, unassigned) [Ex-18.13, (1R,2R or 1S,2S)-N-(6-((R or S)-1-cyanospiro[2.2]pentan-1-yl)-7-fluoroisoquinolin-3-yl)-2-(pyridin-2-yl)cyclopropane-1-carboxamide]"
3,2.57 nM,"CC1(N2CCC(c3cc4cc(NC(=O)C5CC56CCOCC6)ncc4cc3Cl)C(F)C2)COCC1O (single isomer, unassigned) [Ex-14.6, N-(7-chloro-6-(3-fluoro-1-(4-hydroxy-3-methyltetrahydrofuran-3-yl)piperidin-4-yl)isoquinolin-3-yl)-6-oxaspiro[2.5]octane-1-carboxamide]"
4,0.0813 nM,"COC1CN(C2CCC(c3cc4cc(NC(=O)C5CC56CCOCC6)ncc4cc3Cl)CC2)C1 (single isomer, unassigned) [Ex-11.3, N-(7-chloro-6-(4-(3-methoxyazetidin-1-yl)cyclohexyl)isoquinolin-3-yl)-6-oxaspiro[2.5]octane-1-carboxamide]"
5,1.86 nM,N#CC1(c2ccc3cnc(NC(=O)C4CC4c4ccncc4)cc3c2)CC12CC2 (stereo not shown) [Ex-2.41]
6,0.776 nM,"CC1(C)CCC(C(=O)Nc2cc3cc(C4CCN(C5(C)COCC5O)CC4)c(Cl)cc3cn2)CO1 (single isomer, unassigned) [Ex-4.25, N-(7-chloro-6-(1-(4-hydroxy-3-methyltetrahydrofuran-3-yl)piperidin-4-yl)isoquinolin-3-yl)-6,6-dimethyltetrahydrofuran-2H-pyran-3-carboxamide]"
7,1.48 nM,"CC1(N2CCC(c3cc4cc(NC(=O)C5CC5C(F)F)ncc4cc3Cl)CC2)COCC1O (single isomer, unassigned) [Ex-4.43, N-(7-chloro-6-(1-(4-hydroxy-3-methyltetrahydrofuran-3-yl)piperidin-4-yl)isoquinolin-3-yl)-2-(difluoromethyl)cyclopropane-1-carboxamide]"
8,24 nM,"CC(C)OC1CCC(C(=O)Nc2cc3cc(C4(C#N)CC45CC5)ccc3cn2)OC1 (single isomer, unassigned) [Ex-1.28, N-(6-((R or S)-1-cyanospiro[2.2]pentan-1-yl)isoquinolin-3-yl)-5R or 5S-isopropoxytetrahydro-2H-pyran-2R-carboxamide]"
9,1.58 nM,"Cn1cc(C2CC2C(=O)Nc2cc3cc(C4(C#N)CC45CC5)ccc3cn2)cn1 (single isomer, unassigned) [Ex-1.23, (1R,2R or 1S,2S)-N-(6-((R or S)-1-cyanospiro[2.2]pentan-1-yl)isoquinolin-3-yl)-2-(1-methyl-1H-pyrazol-4-yl)cyclopropane-1-carboxamide]"
10,70.8 nM,"CC1(C)CC(C(=O)Nc2cc3cc(C4CCC(N5CCC(F)C5)CC4)c(Cl)cc3cn2)CCO1 (single isomer, unassigned) [Ex-5.11, N-(7-chloro-6-(4-(3-fluoropyrrolidin-1-yl)cyclohexyl)isoquinolin-3-yl)-2,2-dimethyltetrahydro-2H-pyran-4-carboxamid]"
11,9.12 nM,"O=C(Nc1cc2cc(C3CCN(C4COC4)CC3)c(Cl)cc2cn1)C1(F)CC1 [Ex-7.8, N-(7-chloro-6-(1-(oxetan-3-yl)piperidin-4-yl)isoquinolin-3-yl)-1-fluorocyclopropane-1-carboxamide]"
12,1.2 nM,"CC1(C)CC(C(=O)Nc2cc3cc(C4CCN(C5(C)CCOC5)CC4)c(Cl)cc3cn2)CCO1 (single isomer, unassigned) [Ex-6.46, N-(7-chloro-6-(1-(3-methyltetrahydrofuran-3-yl)piperidin-4-yl)isoquinolin-3-yl)-2,2-dimethyltetrahydro-2H-pyran-4-carboxamide]"

# The remaining lines, values behind:
row,SMILES,IC50
1,"CC1(N2CCC(c3cc4cc(NC(=O)C5CC56CCOC6)ncc4cc3Cl)CC2)COCC1F (single isomer, unassigned) [Ex-6.2, (R or S)-N-(7-chloro-6-(1-((3R,4R or 3S,4S)-4-fluoro-3-methyltetrahydrofuran-3-yl)piperidin-4-yl)isoquinolin-3-yl)-5-oxaspiro [2.4] heptane-1-carboxamide]",112 nM
2,"Cc1cc2cnc(NC(=O)C3CC34CCOC4)cc2cc1C1CCN(C2(C)COCC2F)CC1 (single isomer, unassigned) [Ex-15.11, N-(6-(1-(4-fluoro-3-methyltetrahydrofuran-3-yl)piperidin-4-yl)-7-methylisoquinolin-3-yl)-5-oxaspiro[2.4]heptane-1-carboxamide]",70.8 nM
3,"Cc1cc2cnc(NC(=O)C3CC3c3ccccn3)cc2cc1C1CCN(C2(C)CCOC2)CC1 (single isomer, unassigned) [Ex-16.10, N-(7-methyl-6-(1-(3-methyltetrahydrofuran-3-yl)piperidin-4-yl)isoquinolin-3-yl)-2-(pyridin-2-yl)cyclopropane-1-carboxamide]",0.0813 nM
4,"O=C(Nc1cc2cc(C3CCN(C4COC4)CC3)c(Cl)cc2cn1)[C@H]1C[C@@H]1F (single isomer, unassigned) [Ex-1.7, (1R,3S or 1S,3R)-N-(7-chloro-6-(1-(oxetan-3-yl)piperidin-4-yl)isoquinolin-3-yl)-2-fluorocyclopropane-1-carboxamide]",1.12 nM
5,"Cn1cc(C(=O)Nc2cc3cc(C4CCN([C@]5(C)COC[C@@H]5O)CC4)c(Cl)cc3cn2)cn1 (single isomer, unassigned) [Ex-12.9, N-(7-chloro-6-(1-(4-hydroxy-3-methyltetrahydrofuran-3-yl)piperidin-4-yl)isoquinolin-3-yl)-1-methyl-1H-pyrazole-4-carboxamide]",141 nM
6,"CC1(N2CCC(c3cc4cc(NC(=O)C5C6CCOCC65)ncc4cc3Cl)CC2)COCC1F (single isomer, unassigned) [Ex-6.42, N-(7-chloro-6-(1-(4-fluoro-3-methyltetrahydrofuran-3-yl)piperidin-4-yl)isoquinolin-3-yl)-3-oxabicyclo[4.1.0]heptane-7-carboxamide]",0.38 nM
7,"Cc1cc2cnc(NC(=O)C3CC34CCOC4)cc2cc1C1CCN(C2(C)COCC2F)CC1 (single isomer, unassigned) [Ex-15.12, N-(6-(1-(4-fluoro-3-methyltetrahydrofuran-3-yl)piperidin-4-yl)-7-methylisoquinolin-3-yl)-5-oxaspiro[2.4]heptane-1-carboxamide]",85.1 nM
8,"CC1(N2CCC(c3cc4cc(NC(=O)C5CC5C(F)F)ncc4cc3Cl)CC2)COCC1O (single isomer, unassigned) [Ex-10.9, N-(7-chloro-6-(1-(4-hydroxy-3-methyltetrahydrofuran-3-yl)piperidin-4-yl)isoquinolin-3-yl)-2-(difluoromethyl)cyclopropane-1-carboxamide]",7.24 nM
9,"CC1(N2CCC(c3cc4cc(NC(=O)C5CC56CCOC6)ncc4cc3Cl)CC2)COCC1F (single isomer, unassigned) [Ex-6.7, (R or S)-N-(7-chloro-6-(1-((3R,4R or 3S,4S)-4-fluoro-3-methyltetrahydrofuran-3-yl)piperidin-4-yl)isoquinolin-3-yl)-5-oxaspiro [2.4] heptane-1-carboxamide]",1.82 nM
